{"source": "patent US11643439B2", "about": "“Multi-target compound with anticoagulation and antiplatelet activity, preparation method therefor, and use thereof” (SHAANXI MICOT TECHNOLOGY LIMITED COMPANY, priority 2015, dated 2023)", "key": {"[1]": {"tested_on": "experimental cerebral infarction", "experiment": "Progressive ischemic stroke (MCAO suture method) in rats", "assay_type": "in vivo, rat", "conditions": "for Cerebral index / Cerebral infarct volume ratio: 24 hours after the surgery", "protocol": "3.2 Grouping and administration: At 15 min after the mold was established, administration was started by jugular vein intubation, with the first dose and the maintenance dose for 60 min, […], while the model group was administered with physiological saline.\n3.3 Experimental operation: Suture method (common carotid artery insertion method): the skin on the neck was cut open from a median incision thereon, and the common, external and internal carotid arteries were isolated therefrom. The common carotid artery was ligated at the heart-proximal end and the external carotid artery was ligated at the distal end. The distal end of the internal carotid artery was temporarily occluded with a small vascular clamp, and at the bifurcation of the common, external and internal carotid arteries, a thread for ligature was reserved. A small opening was cut with an eye scissor on the common carotid artery which was close to the internal carotid artery, to allow a certain degree of bending of the MCAO thread, which inserted into the internal carotid artery along the common carotid artery. During the thread insertion, the thread bended towards the direction of the operator, which was slowly pushed forward about 18 mm (from the bifurcation of the arteries), and terminated when a resistance was felt. The reserved thread was ligated at the bifurcation to fix the thread. At 15 min after the mold was established, the first dose was administered followed by maintenance dose for 60 min, and after the administration was finished, the wound in the neck was sutured in a conventional manner.\n4.1 Neurobehavioral scores: Rats in both the groups were evaluated in terms of their neurobehavioral scores at 4, 8, and 24 hours after the surgery, with a Longa five-point quartering method as the standard: 0 point: no neurological defect; 1 point: adduction and failure to full extension of forelimbs on contralateral side when tail lifting; 2 points: rotation to the contralateral side; 3 points: toppling and falling to the contralateral side when walking; 4 points: failure to walk or coma. Cases with 1 to 4 points were classified as valid models.\n4.2 observing infarct lesions and infarct volume by TTC staining: At 24 hours after the surgery, the animals were sacrificed and the brain was taken for TTC staining. The infarct volume was calculated by using a mapping software.\n4.3 Cerebral index, cerebral water content: The rats in each group were rapidly decapitated 24 hours after the surgery and model establishment, and the whole brain was rapidly peeled off, which was then weighed for wet weight and used to calculate the brain index: Brain index=Brain wet weight/Body weight*100%"}, "[2]": {"tested_on": "thrombin-induced pulmonary embolism", "experiment": "Thrombin-induced pulmonary embolism in mice", "assay_type": "in vivo, mouse", "conditions": "thrombin 1500 u/kg, tail iv 250 IU/kg"}, "[3]": {"conditions": "iv 0.5 + 1.25 (mg/kg + mg/kg/h)"}}, "note": "Marks after values point to notes of the source that are not given here."}
{"substance": "D-Phe Pro Arg Pro Gly Gly Gly Gly Asn Gly Asp Phe Glu Glu Ile Pro Glu Glu Tyr Leu Glu Ala Ala Ala Lys Cys Har Gly Asp Trp Pro Cys [Polypeptide 2]", "values": [{"measurement": "neurological behaviors (neurobehavioral score, Longa)", "setting": "[1]; iv 0.5 + 1.25 (mg/kg + mg/kg/h), 4 h after surgery", "value": "1.00 ± 0.58"}, {"measurement": "neurological behaviors (neurobehavioral score, Longa)", "setting": "[1]; iv 0.5 + 1.25 (mg/kg + mg/kg/h), 8 h after surgery", "value": "1.00 ± 0.58"}, {"measurement": "neurological behaviors (neurobehavioral score, Longa)", "setting": "[1]; iv 0.5 + 1.25 (mg/kg + mg/kg/h), 24 h after surgery", "value": "1.00 ± 0.58"}, {"measurement": "Cerebral index", "setting": "[1]; [3]", "value": "0.6648 ± 0.0374", "unit": "%"}, {"measurement": "Cerebral infarct volume ratio", "setting": "[1]; [3]", "value": "11.12 ± 6.56", "unit": "%"}, {"measurement": "Cerebral infarct volume ratio", "setting": "[1]; iv 0.5 + 1.25 (mg/kg + mg/kg/h), listed as polypeptide 2", "value": "11.12±6.56", "unit": "%"}, {"measurement": "neurological behaviors (neurobehavioral score, Longa)", "setting": "[1]; iv 1.0 + 2.5 (mg/kg + mg/kg/h), 4 h after surgery", "value": "0.86 ± 1.07"}, {"measurement": "neurological behaviors (neurobehavioral score, Longa)", "setting": "[1]; iv 1.0 + 2.5 (mg/kg + mg/kg/h), 8 h after surgery", "value": "0.86 ± 0.90"}, {"measurement": "neurological behaviors (neurobehavioral score, Longa)", "setting": "[1]; iv 1.0 + 2.5 (mg/kg + mg/kg/h), 24 h after surgery", "value": "1.14 ± 0.69"}, {"measurement": "Cerebral index", "setting": "[1]; iv 1.0 + 2.5 (mg/kg + mg/kg/h)", "value": "0.6830 ± 0.0322", "unit": "%"}, {"measurement": "Cerebral infarct volume ratio", "setting": "[1]; iv 1.0 + 2.5 (mg/kg + mg/kg/h)", "value": "8.01 ± 6.66", "unit": "%"}, {"measurement": "Cerebral infarct volume ratio", "setting": "[1]; iv 1.0 + 2.5 (mg/kg + mg/kg/h), listed as polypeptide 2", "value": "8.01±6.66", "unit": "%"}]}
{"substance": "Enoxaparin", "values": [{"measurement": "neurological behaviors (neurobehavioral score, Longa)", "setting": "[1]; iv 90 U/kg + 120 U/kg/h, 4 h after surgery", "value": "0.63 ± 0.74"}, {"measurement": "neurological behaviors (neurobehavioral score, Longa)", "setting": "[1]; iv 90 U/kg + 120 U/kg/h, 8 h after surgery", "value": "0.88 ± 0.64"}, {"measurement": "neurological behaviors (neurobehavioral score, Longa)", "setting": "[1]; iv 90 U/kg + 120 U/kg/h, 24 h after surgery", "value": "1.38 ± 0.74"}, {"measurement": "Cerebral index", "setting": "[1]; iv 90 U/kg + 120 U/kg/h", "value": "0.6819 ± 0.0356", "unit": "%"}, {"measurement": "Cerebral infarct volume ratio", "setting": "[1]; iv 90 U/kg + 120 U/kg/h", "value": "10.22 ± 5.38", "unit": "%"}, {"measurement": "Number of platelets", "setting": "[2]", "value": "459.83 ± 49.66 ×10^9"}, {"measurement": "Mortality rate", "setting": "[2]; within 15 min", "value": "10**^## %"}]}
